# Assays:
# [1] = test system: binocular zone of V1 of Lynx1 knockout and wild-type mice; test: Ocular dominance plasticity after short-term monocular deprivation, extracellular recording in vivo (contralateral bias index); set-up: species or system mouse; details: for effect on adult ocular dominance plasticity in Lynx1 knockout mice (in words): concurrent with short-term MD
# Procedure: (§1) Eyelid margins were trimmed by iris scissor and eyes sutured shut under isoflurane anesthesia. Eyes were closed 4-5 days for short term MD (STMD), from P19 to >P60 for long term MD (CP-LTMD), and from P19 to P33 for recovery studies.
# Electrophysiological recording was performed under nembutal/chlorprothixene anesthesia using standard techniques for mice (T. K. Hensch et al., Science 282: 1504 (1998); J. A. Gordon, M. P. Stryker, J Neurosci 16: 3274 (1996). Ocular dominance in the binocular zone of each mouse was calculated as a contralateral bias index (CBI): [(n1−n7)+2/3(n2−n6)+⅓(n3−n5)+N]/2N, where N=total number of cells and nx=number of cells corresponding to ocular dominance score of x (J. A. Gordon, M. P. Stryker, J Neurosci 16, 3274 (1996)). For statistical comparison of OD distributions, normalized OD scores of single neurons were plotted as cumulative distribution for each experimental group. OD score was computed by PSTH analysis of peak to baseline spiking activity in response to each eye: {[Peak(ipsi)−baseline(ipsi)]−[Peak(contra)-baseline(contra)]}/{[Peak(ipsi)-baseline(ipsi)]+[Peak(contra)-baseline(contra)]}(T. Pizzorusso et al., Science, 298: 1248 (2002)).
# V1 of wild-type mice = test: Recovery from amblyopia: visual acuity by visual evoked potentials in V1 after long-term MD and eye reopening; assay type: in vivo, mouse; details: WT mice
# From the text: as §1
SMILES,"contralateral bias index (CBI) ([1]; adult Lynx1 KO mice, adult MD, focal infusion into V1 by osmotic minipump)",effect on adult ocular dominance plasticity in Lynx1 knockout mice (in words) ([1]; adult Lynx1 KO mice),"Visual acuity (VEP) (V1 of wild-type mice; LTMD P19 to P33, deprived eye reopened, 0.1 mg/kg i.p. daily from P45, recorded >P60) [cyc/deg]","Visual acuity (VEP) (V1 of wild-type mice; no MD, with AChEI) [cyc/deg]","contralateral bias index (CBI) ([1]; adult Lynx1 KO mice, no MD, with mecamylamine)","contralateral bias index (CBI) ([1]; adult Lynx1 KO mice, short-term MD with concurrent nAChR antagonist (systemic i.p. daily or cortical minipump infusion))","contralateral bias index (CBI) ([1]; adult WT mice, short-term MD with concurrent mecamylamine)"
CN1C(=O)CN=C(c2ccccc2)c2cc(Cl)ccc21 [Diazepam],0.67,abolished adult plasticity,,,,,
CNC(=O)Oc1ccc2c(c1)[C@]1(C)CCN(C)[C@@H]1N2C [physostigmine],,,0.48±0.06,0.47±0.02,,,
CNC1(C)C2CCC(C2)C1(C)C (centres unmarked) [mecamylamine],,sufficient to prevent adult plasticity,,,0.68,0.68,0.69
